Laboratory results from US20250114374A1, “BCL-2 INHIBITORS” (Newave Pharmaceutical Inc., priority 2021, published 2025).

Tested on: RS4; 11 with G101V mutation
Experiment: In vitro anti-proliferation assay (ATPlite luminescence) in BCL-2-dependent ALL cell line RS4;11 with G101V mutation
Type: cell-based
Details: cellular anti-proliferative IC50, about 72 hours, medium with 10% FBS, ATPlite; read-out: RS411-G101V IC50
Experimental: Cell antiproliferation was assayed by PerkinElmer ATPlite™ Luminescence Assay System. Briefly, the various test cancer cell lines were plated at a density of about 1×10^4 cells per well in Costar 96-well plates, and were incubated with different concentrations of compounds for about 72 hours in medium supplemented with 10% FBS. One lyophilized substrate solution vial was then reconstituted by adding 5 mL of substrate buffer solution, and was agitated gently until the solution was homogeneous. About 50 μL of mammalian cell lysis solution was added to 100 μL of cell suspension per well of a microplate, and the plate was shaken for about five minutes in an orbital shaker at ˜700 rpm. This procedure was used to lyse the cells and to stabilize the ATP. Next, 50 μL substrate solution was added to the wells and microplate was shaken for five minutes in an orbital shaker at ˜700 rpm. Finally, the luminescence was measured by a PerkinElmer TopCount® Microplate Scintillation Counter. Such assays, carried out with a range of doses of test compounds, allowed the determination of the cellular anti-antiproliferative IC50 of the compounds of the present invention.
The following table lists the IC50 values of another study for certain compounds of the invention.

| SMILES | IC50 [µM] |
| --- | --- |
| COc1cc(CN2CCN(C3CC4(CCN(c5ccc(C(=O)NS(=O)(=O)c6ccc(NCC7CCC(C)(O)CC7)c([N+](=O)[O-])c6)c(N6c7cc8c(F)c[nH]c8nc7O[C@H]7COCC[C@@H]76)c5)CC4)C3)[C@@H](c3ccccc3OC(C)C)C2)cnc1N1CCOCC1 (stereo partly drawn) [Example 122, 2-[(3R,8S)-13-fluoro-2,5-dioxa-9,15,17-triazatetracyclo[8.7.0.0^{3,8}.0^{12,16}]heptadeca-1(10),11,13,16-tetraen-9-yl]-4-{2-[(2S)-2-(2-isopropoxyphenyl)-4-{[5-methoxy-6-(morpholin-4-yl)pyridin-3-yl]methyl}piperazin-1-yl]-7-azaspiro[3.5]nonan-7-yl}-N-[3-nitro-4-({[(1r,4r)-4-hydroxy-4-methylcyclohexyl]methyl}amino)benzenesulfonyl]benzamide] | 0.01 |
| COc1cc(CN2CCN(C3CC4(CCN(c5ccc(C(=O)NS(=O)(=O)c6ccc(NCC7CCC(C)(O)CC7)c([N+](=O)[O-])c6)c(N6c7cc8cc[nH]c8nc7O[C@H]7COCC[C@@H]76)c5)CC4)C3)[C@H](c3ccccc3C)C2)cnc1N1CCOCC1 (stereo partly drawn) [Example 123, N-((4-((((1r,4r)-4-hydroxy-4-methylcyclohexyl)methyl)amino)-3-nitrophenyl)sulfonyl)-4-(2-((R)-4-((5-methoxy-6-morpholinopyridin-3-yl)methyl)-2-(o-tolyl)piperazin-1-yl)-7-azaspiro[3.5]nonan-7-yl)-2-((5aS,9aR)-6,7,9,9a-tetrahydro-1H-pyrano[3,4-b]pyrrolo[3′,2′:5,6]pyrido[3,2-e][1,4]oxazin-5(5aH)-yl)benzamide] | 0.0029 |
| COc1cc(CN2CCN(C3CC4(CCN(c5ccc(C(=O)NS(=O)(=O)c6ccc(NCC7CCC(C)(O)CC7)c([N+](=O)[O-])c6)c(N6c7cc8cc[nH]c8nc7O[C@H]7COCC[C@@H]76)c5)CC4)C3)[C@H](c3ccccc3C)C2)cnc1N1CCOCC1 (stereo partly drawn) [Example 124, N-((4-((((1r,4r)-4-hydroxy-4-methylcyclohexyl)methyl)amino)-3-nitrophenyl)sulfonyl)-4-(2-((R)-4-((5-(methoxy-d3)-6-morpholinopyridin-3-yl)methyl)-2-(o-tolyl)piperazin-1-yl)-7-azaspiro[3.5]nonan-7-yl)-2-((5aS,9aR)-6,7,9,9a-tetrahydro-1H-pyrano[3,4-b]pyrrolo[3′,2′:5,6]pyrido[3,2-e][1,4]oxazin-5(5aH)-yl)benzamide] | 0.002 |
| Cc1ccccc1[C@@H]1CN(Cc2cnc3c(c2)OCCO3)CCN1C1CC2(CCN(c3ccc(C(=O)NS(=O)(=O)c4ccc(NCC5CCC(C)(O)CC5)c([N+](=O)[O-])c4)c(N4c5cc6cc[nH]c6nc5O[C@H]5COCC[C@@H]54)c3)CC2)C1 (stereo partly drawn) [Example 125, 2-[(3R,8S)-2,5-dioxa-9,15,17-triazatetracyclo[8.7.0.0^{3,8}.0^{12,16}]heptadeca-1(10),11,13,16-tetraen-9-yl]-4-{2-[(2R)-4-{2H,3H-[1,4]dioxino[2,3-b]pyridin-7-ylmethyl}-2-(2-methylphenyl)piperazin-1-yl]-7-azaspiro[3.5]nonan-7-yl}-N-[3-nitro-4-({[(1r,4r)-4-hydroxy-4-methylcyclohexyl]methyl}amino)benzenesulfonyl]benzamide] | 0.0139 |
| COc1cc(CN2CCN(C3CC4(CCN(c5ccc(C(=O)NS(=O)(=O)c6ccc(NCC7CCC(C)(O)CC7)c([N+](=O)[O-])c6)c(N6c7cc8cc[nH]c8nc7O[C@H]7COCC[C@@H]76)c5)CC4)C3)[C@@H](c3ccccc3OC(C)C)C2)cnc1N1CCOC[C@@H]1C (stereo partly drawn) [Example 126, N-((4-((((1r,4r)-4-hydroxy-4-methylcyclohexyl)methyl)amino)-3-nitrophenyl)sulfonyl)-4-(2-((S)-2-(2-isopropoxyphenyl)-4-((5-methoxy-6-((S)-3-methylmorpholino)pyridin-3-yl)methyl)piperazin-1-yl)-7-azaspiro[3.5]nonan-7-yl)-2-((5aS,9aR)-6,7,9,9a-tetrahydro-1H-pyrano[3,4-b]pyrrolo[3′,2′:5,6]pyrido[3,2-e][1,4]oxazin-5(5aH)-yl)benzamide] | 0.0117 |
